Assay results: patent US11078202B2, “β-lactamase inhibitor and use thereof” (priority 2018, dated 2021)
Structures can show the parent of a compound that is named as a salt.

Assays:
Type in all cases: cell-based
[1] = test system: Escherichia coli XNWB 0010; experiment: MIC assay of test compounds combined with ampicillin (8 μg/mL); settings: ampicillin 8 μg/mL fixed
Protocol: (§1) The bacterial strains used for the minimum inhibitory concentration (MIC) test were frozen in a −80° C. ULT freezer and thawed 2 days before use. A small amount of frozen bacterial strains were scraped using a sterile inoculating loop, streaked onto a TSA solid culture dish for inoculation, and then cultured for 20-24 h at 35±2° C. in a normal atmospheric environment.
(§2) 5-10 colonies with similar morphology were picked from the culture dish using a sterile inoculating loop and then re-streaked onto a suitable solid culture dish. Then the dish was placed into a normal incubator for culture for 20-24 h at 35±2° C.
(§3) 5-10 single bacterial colonies were picked from the solid culture dish, resuspended in 500 μL of 0.9% NaCl, and adjusted to an OD600 of 0.1-0.15 with a spectrophotometer.
(§4) The bacteria were then diluted 300-fold with 1.1×CAMHB.
(§5) Test compounds of columns A-H: having a highest final test concentration of 64 μg/mL or 32 μg/mL, 2-fold diluted.
(§6) Dilution of test compounds: All test compounds were dissolved and diluted in dimethylsulfoxide (DMSO). 170 μL of 3.2 mg/mL (50*64 μg/mL) compound was transferred to wells (A1-H1) of column 1 of a dilution master plate and then 85 μL of DMSO was transferred to wells of other columns. Each compound was diluted 2-fold in sequence (i.e., 85 μL of compound was pipetted from column 1 into column 2 and mixed uniformly, 85 μL of compound was pipetted from column 2 into column 3 and mixed uniformly, then 85 μL of compound was pipetted from column 3 into column 4 and mixed uniformly, and so on until the dilution was done in column 11).
(§7) Preparation of an additive of ampicillin: Ampicillin was dissolved in ddH2O. 30 μL of 100 μg/mL (12.5×8 μg/mL) ampicillin was transferred to columns 1-11 of an additive plate, followed by the addition of 30 μL of ddH2O to column 12.
(§8) 2 μL of each compound in the dilution master plate of the test compounds was transferred to the corresponding well of the assay plates. In the mean time, 2 μL of 100% DMSO was transferred to the compound-free wells (GC and SC wells). (1) 8 μL of imipenem in the additive plate of imipenem was transferred to the corresponding wells of the assay plates; (2) 8 μL of ceftazidime in the additive plate of ceftazidime was transferred to the corresponding wells of the assay plates; (3) 8 μL of ampicillin in the additive plate of ampicillin was transferred to the corresponding wells of the assay plates.
(§9) 90 μL of corresponding bacterial inocula were added to wells (except for SC wells) of the assay plates.
(§10) After addition, the 6 assay plates were covered by sterile covers. The mixtures in the assay plates were centrifuged by a centrifuge at 1000 rpm for 30 s, and mixed uniformly by oscillating with a microplate oscillator at 800 rpm for 1 min, and then cultured in a common incubator for 16-20 h at 35±2° C.
(§11) The minimum inhibitory concentration of each compound was recorded by reference to guidelines from the Clinical and Laboratory Standards Institute.
(§12) The minimum inhibitory concentrations of the compounds of the present invention and antibiotics (imipenem, ceftazidime, and ampicillin) against 11 strains of bacteria were tested in this study by reference to the medium microdilution method as indicated by the Clinical and Laboratory Standards Institute. The effect of the test compounds in combination with imipenem, ceftazidime, and ampicillin was also tested. Compounds were diluted two-fold in 96-well plates from the highest detection concentration of 64 μg/mL. The test compounds were tested in combination with a fixed concentration of imipenem (4 μg/mL), ceftazidime (8 μg/mL), and ampicillin (8 μg/mL). The bacterial inocula in the assay plates were resuscitated from TSA and diluted in CAMHB, while growth controls (GC wells) and sterile controls (SC wells) were set up in the assay plates. […]

[2] = test system: Enterobacter aerogenes XNWB 0011; experiment: as above; settings: ampicillin 8 μg/mL fixed
Protocol: as §1, §2, §3, §4, §5, §6, §7, §8, §9, §10, §11, §12

[3] = test system: Escherichia coli XNWB 0009; experiment: as above; settings: ampicillin 8 μg/mL fixed
Protocol: as §1, §2, §3, §4, §5, §6, §7, §8, §9, §10, §11, §12

[4] = test system: Klebsiella pneumoniae XNWB 0003; experiment: MIC assay of test compounds combined with imipenem (4 μg/mL); settings: imipenem 4 μg/mL fixed
Procedure, shortened: (§13)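 Each compound was titrated in CAMHB in the presence of a constant partner antibiotic and challenged with a bacterial suspension prepared to OD600 0.1-0.15 in saline, then diluted 300-fold. Incubation lasted 16-20 h at 35±2 °C in air.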

[5] = test system: Acinetobacter baumannii XNWB 0007; experiment: as above; settings: imipenem 4 μg/mL fixed
Procedure, shortened: as §13

[6] = test system: Klebsiella pneumoniae XNWB 0006; experiment: as above; settings: imipenem 4 μg/mL fixed
Procedure, shortened: as §13

[7] = test system: Klebsiella pneumoniae XNWB 0001; experiment: as above; settings: imipenem 4 μg/mL fixed
Procedure, shortened: as §13

[8] = test system: Klebsiella pneumoniae XNWB 0005; experiment: as above; settings: imipenem 4 μg/mL fixed
Procedure, shortened: as §13

[9] = test system: Klebsiella pneumoniae XNWB 0004; experiment: as above; settings: imipenem 4 μg/mL fixed
Procedure, shortened: as §13

[10] = test system: Klebsiella pneumoniae XNWB 0002; experiment: as above; settings: imipenem 4 μg/mL fixed
Procedure, shortened: as §13

[11] = test system: Pseudomonas aeruginosa XNWB 0008; experiment: as above; settings: imipenem 4 μg/mL fixed
Procedure, shortened: as §13

[12] = test system: Klebsiella pneumoniae XNWB 0003; experiment: MIC assay of test compounds combined with ceftazidime (8 μg/mL); settings: ceftazidime 8 μg/mL fixed
Procedure, shortened: as §13

[13] = test system: Acinetobacter baumannii XNWB 0007; experiment: as above; settings: ceftazidime 8 μg/mL fixed
Procedure, shortened: as §13

[14] = test system: Klebsiella pneumoniae XNWB 0006; experiment: as above; settings: ceftazidime 8 μg/mL fixed
Procedure, shortened: as §13

[15] = test system: Klebsiella pneumoniae XNWB 0001; experiment: as above; settings: ceftazidime 8 μg/mL fixed
Procedure, shortened: as §13

[16] = test system: Klebsiella pneumoniae XNWB 0005; experiment: as above; settings: ceftazidime 8 μg/mL fixed
Procedure, shortened: as §13

[17] = test system: Klebsiella pneumoniae XNWB 0004; experiment: as above; settings: ceftazidime 8 μg/mL fixed
Procedure, shortened: as §13

[18] = test system: Klebsiella pneumoniae XNWB 0002; experiment: as above; settings: ceftazidime 8 μg/mL fixed
Procedure, shortened: as §13

[19] = test system: Pseudomonas aeruginosa XNWB 0008; experiment: as above; settings: ceftazidime 8 μg/mL fixed
Procedure, shortened: as §13

| SMILES | The minimum concentration of test compounds combined with ampicillin (8 μg/mL) for bacteriostasis [1] | The minimum concentration of test compounds combined with ampicillin (8 μg/mL) for bacteriostasis [2] | The minimum concentration of test compounds combined with ampicillin (8 μg/mL) for bacteriostasis [3] | The minimum concentration of test compounds combined with imipenem (4 μg/mL) for bacteriostasis [4] | The minimum concentration of test compounds combined with imipenem (4 μg/mL) for bacteriostasis [5] | The minimum concentration of test compounds combined with imipenem (4 μg/mL) for bacteriostasis [6] | The minimum concentration of test compounds combined with imipenem (4 μg/mL) for bacteriostasis [7] | The minimum concentration of test compounds combined with imipenem (4 μg/mL) for bacteriostasis [8] | The minimum concentration of test compounds combined with imipenem (4 μg/mL) for bacteriostasis [9] | The minimum concentration of test compounds combined with imipenem (4 μg/mL) for bacteriostasis [10] | The minimum concentration of test compounds combined with imipenem (4 μg/mL) for bacteriostasis [11] | The minimum concentration of test compounds combined with ceftazidime (8 μg/mL) for bacteriostasis [12] | The minimum concentration of test compounds combined with ceftazidime (8 μg/mL) for bacteriostasis [13] | The minimum concentration of test compounds combined with ceftazidime (8 μg/mL) for bacteriostasis [14] | The minimum concentration of test compounds combined with ceftazidime (8 μg/mL) for bacteriostasis [15] | The minimum concentration of test compounds combined with ceftazidime (8 μg/mL) for bacteriostasis [16] | The minimum concentration of test compounds combined with ceftazidime (8 μg/mL) for bacteriostasis [17] | The minimum concentration of test compounds combined with ceftazidime (8 μg/mL) for bacteriostasis [18] | The minimum concentration of test compounds combined with ceftazidime (8 μg/mL) for bacteriostasis [19] |
| --- | --- | --- | --- | --- | --- | --- | --- | --- | --- | --- | --- | --- | --- | --- | --- | --- | --- | --- | --- |
| O=C1N2C[C@H](N1OS(=O)(=O)O)C1(CC1)C[C@H]2c1nnc(CNC2CNC2)o1 [Example 14, (1R,4S)-4-(5-((azetidin-3-ylamino)methyl)-1,3,4-oxadiazol-2-yl)-6-oxo-5,7-diazaspiro [bicyclo[3.2.1]octane-2,1′-cyclopropan]-7-yl sulfate] | 4 µg/mL | B (B: 8-16 μg/mL) | A (A: <8 μg/mL) | A (A: <8 μg/mL) | C (C: 16-128 μg/mL) | A (A: <8 μg/mL) | A (A: <8 μg/mL) | A (A: <8 μg/mL) | A (A: <8 μg/mL) | A (A: <8 μg/mL) | B (B: 8-16 μg/mL) | B (B: 8-16 μg/mL) | C (C: 16-128 μg/mL) | A (A: <8 μg/mL) | A (A: <8 μg/mL) | B (B: 8-16 μg/mL) | B (B: 8-16 μg/mL) | A (A: <8 μg/mL) | C (C: 16-128 μg/mL) |
| N=C(N)NCc1nnc([C@@H]2CC3(CC3)[C@@H]3CN2C(=O)N3OS(=O)(=O)O)o1 [Example 3, (1R,4S)-4-(5-(guanidinomethyl)-1,3,4-oxadiazol-2-yl)-6-oxo-5,7-diazaspiro[bicycle [3.2.1]octane-2,1′-cyclopropan]-7-yl sulfate] | B (B: 8-16 μg/mL) | C (C: 16-128 μg/mL) | A (A: <8 μg/mL) | A (A: <8 μg/mL) | C (C: 16-128 μg/mL) | A (A: <8 μg/mL) | B (B: 8-16 μg/mL) | A (A: <8 μg/mL) | A (A: <8 μg/mL) | A (A: <8 μg/mL) | C (C: 16-128 μg/mL) | B (B: 8-16 μg/mL) | C (C: 16-128 μg/mL) | A (A: <8 μg/mL) | B (B: 8-16 μg/mL) | B (B: 8-16 μg/mL) | B (B: 8-16 μg/mL) | A (A: <8 μg/mL) | C (C: 16-128 μg/mL) |
| O=C1N2C[C@H](N1OS(=O)(=O)O)C1(CC1)C[C@H]2c1cc(C2CCNCC2)on1 [Example 43, (1R,4S)-6-oxo-4-(5-(piperidin-4-yl)isoxazol-3-yl)-5,7-diazaspiro[bicyclo[3.2.1]octane-2,1′-cyclopropan]-7-yl sulfate] | A (A: <8 μg/mL) | B (B: 8-16 μg/mL) | A (A: <8 μg/mL) | A (A: <8 μg/mL) | C (C: 16-128 μg/mL) | A (A: <8 μg/mL) | A (A: <8 μg/mL) | A (A: <8 μg/mL) | A (A: <8 μg/mL) | A (A: <8 μg/mL) | A (A: <8 μg/mL) | B (B: 8-16 μg/mL) | C (C: 16-128 μg/mL) | A (A: <8 μg/mL) | A (A: <8 μg/mL) | A (A: <8 μg/mL) | B (B: 8-16 μg/mL) | A (A: <8 μg/mL) | B (B: 8-16 μg/mL) |
